According to US12679878B2, “CRF2 receptor agonists and their use in therapy” (SANOFI, priority 2020, dated 2026):
Starred links: 1 amine or outer side, 2 acyl side, 3 side chain; linkers in the order of their positions; H or OH if unused. Non-standard residues stand in square brackets, D forms with d. Residues, ends and D or L forms follow the SMILES beside them. Groups on a side chain read outwards from the residue. *: point of attachment. γGlu = O=C(O)[C@H](CCC(=O)[*:2])N[*:1]; Palmitoyl = CCCCCCCCCCCCCCCC(=O)*; Aib = CC(C)(N)C(=O)O

Assays:
human CRF2α receptor = target: T1, human CRF2α receptor (Homo sapiens, UniProt Q13324); test: cAMP agonism at human CRF2 α receptor in TeloHEAC cells (Example 7); type: cell-based; conditions: cAMP HTRF, TeloHEAC cells stably expressing human CRF2 α, 0% HSA; read-out: EC50 [nM], 0% HSA
T1 construct: expressed in transfected cells; host or cells: TeloHEAC
T1 sequence (Q13324 1-411): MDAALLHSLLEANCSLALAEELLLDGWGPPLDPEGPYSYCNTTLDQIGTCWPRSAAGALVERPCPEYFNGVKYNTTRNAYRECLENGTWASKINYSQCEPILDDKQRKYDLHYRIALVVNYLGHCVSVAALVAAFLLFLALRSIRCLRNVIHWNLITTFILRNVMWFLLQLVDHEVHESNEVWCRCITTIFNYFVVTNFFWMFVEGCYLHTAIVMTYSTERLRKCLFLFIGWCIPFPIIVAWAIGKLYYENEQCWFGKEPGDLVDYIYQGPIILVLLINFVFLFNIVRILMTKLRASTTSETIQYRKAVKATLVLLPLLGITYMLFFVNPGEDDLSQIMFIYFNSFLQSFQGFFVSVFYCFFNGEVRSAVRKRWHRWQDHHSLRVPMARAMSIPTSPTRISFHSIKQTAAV
Summary of the method: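 Cryopreserved cells are thawed, washed and resuspended in IBMX-containing (2 mM) HEPES-buffered HBSS with or without 0.1% HSA. Compound incubation runs 30 min at room temperature with 2000 cells per well, then cAMP is measured by time-resolved FRET. Potency is expressed as EC50, efficacy relative to urocortin 2 at 1000 nM.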

CRF1R receptor = target: T2, CRF1R receptor (Homo sapiens, UniProt P34998); test: cAMP activity at anti-target CRF1R, CHO-K1 cell line clone 2 (Example 19.10); type: cell-based; conditions: CRF1R CHO-K1 clone 2; for EC50: 0% HSA, read-out: EC50 [nM] 0% HSA; for Emax: 100% = Sauvagine at 100 nM
T2 construct: host or cells: CHO-K1 clone 2
T2 sequence (P34998 24-415): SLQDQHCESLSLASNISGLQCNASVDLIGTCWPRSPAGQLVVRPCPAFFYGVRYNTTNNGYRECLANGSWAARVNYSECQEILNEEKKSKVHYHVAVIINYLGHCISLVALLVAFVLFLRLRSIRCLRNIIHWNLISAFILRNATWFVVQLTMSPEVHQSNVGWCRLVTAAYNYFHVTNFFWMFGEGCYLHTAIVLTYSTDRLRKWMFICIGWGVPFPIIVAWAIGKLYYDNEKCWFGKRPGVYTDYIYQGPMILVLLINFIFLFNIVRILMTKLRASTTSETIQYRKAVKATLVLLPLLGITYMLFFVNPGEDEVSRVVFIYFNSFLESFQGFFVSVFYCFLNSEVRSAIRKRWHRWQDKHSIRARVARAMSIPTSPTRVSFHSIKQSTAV
Procedure: The CRF1R-overexpression CHO-K1 cell line clone 2 was purchased from PerkinElmer.
Cells were grown in a 10 cm dish at 37° C./5% CO2 in medium (F12 (Hams)/10% FBS/400 μg/ml G418) to near confluence. At that stage, cells were harvested, resuspended to 10 million/mL in culture medium without G418 and with 10% DMSO. 1 mL vial aliquots were slowly frozen to -80° C. in isopropanol and then transferred in liquid nitrogen for storage. These vials were used to run the experiment following the procedure reported 10 in the previous paragraph, except for the compound used in the control well to define the 100% activation (Sauvagine at 100 nM)

EC50 (human CRF2α receptor) | EC50 (CRF1R receptor) | Emax (CRF1R receptor) | SMILES
0.12 nM | > 100 nM | 18.4% | CCCCCCCCCCCCCCCC(=O)N[C@@H](CCC(=O)NCCCC[C@H](NC(=O)[C@H](CC(C)C)NC(=O)[C@H](CCCCN)NC(=O)[C@@H](NC(=O)[C@@H]1CCCN1C(=O)[C@H](NC(=O)[C@H](CC(=O)O)NC(=O)[C@H](CC(C)C)NC(=O)[C@H](CO)NC(=O)[C@H](CC(C)C)NC(=O)[C@@H](NC(=O)[C@@H](N)[C@@H](C)CC)C(C)C)C(C)C)[C@@H](C)O)C(=O)N[C@@H](CCCCN)C(=O)N[C@@H](CCCCN)C(=O)N[C@@H](CC(C)C)C(=O)N[C@@H](CC(C)C)C(=O)N[C@@H](CCCCN)C(=O)N[C@@H](CCC(N)=O)C(=O)N[C@@H](CCC(=O)O)C(=O)N[C@@H](CCCNC(=N)N)C(=O)N[C@@H](CCCCN)C(=O)N[C@@H](CCCNC(=N)N)C(=O)N[C@@H](CCCCN)C(=O)N[C@@H](CCC(=O)O)C(=O)N[C@@H](CCCNC(=N)N)C(=O)N[C@@H](CCC(=O)O)C(=O)NC(C)(C)C(=O)N[C@@H](C)C(=O)N[C@@H](CCC(=O)O)C(=O)N[C@@H](CCCCN)C(=O)N[C@@H](C)C(=O)N[C@@H](C)C(=O)N[C@@H](CCCNC(=N)N)C(=O)N[C@H](C(=O)N[C@@H](CC(C)C)C(=O)N[C@@H](CCC(=O)O)C(=O)N[C@@H](CCCNC(=N)N)C(=O)N[C@H](C(N)=O)C(C)C)[C@@H](C)CC)C(=O)O [compound 29] (H-IVLSLD[dV]PTKLK([γGlu-Palmitoyl])KKLLKQERKRKERE[Aib]AEKAARILERV-NH2; N-terminus assumed)
0.16 nM | > 100 nM | 14.5% | CCCCCCCCCCCCCCCC(=O)N[C@@H](CCC(=O)NCCCC[C@H](NC(=O)[C@H](CC(C)C)NC(=O)[C@H](CCCCN)NC(=O)[C@@H](NC(=O)[C@@H]1CCCN1C(=O)[C@H](NC(=O)[C@H](CC(=O)O)NC(=O)[C@H](CC(C)C)NC(=O)[C@H](CO)NC(=O)[C@H](CC(C)C)NC(=O)[C@@H](NC(=O)[C@@H](N)[C@@H](C)CC)C(C)C)C(C)C)[C@@H](C)O)C(=O)N[C@@H](CCCCN)C(=O)N[C@@H](CCCCN)C(=O)N[C@@H](CC(C)C)C(=O)N[C@@H](CC(C)C)C(=O)N[C@@H](CCCCN)C(=O)N[C@@H](CCC(N)=O)C(=O)N[C@@H](CCC(=O)O)C(=O)N[C@@H](CCCNC(=N)N)C(=O)N[C@@H](CCCCN)C(=O)N[C@@H](CCCNC(=N)N)C(=O)N[C@@H](CCCCN)C(=O)N[C@@H](CCC(=O)O)C(=O)N[C@@H](CCCNC(=N)N)C(=O)N[C@@H](CCC(=O)O)C(=O)N[C@@H](CCC(N)=O)C(=O)N[C@@H](C)C(=O)N[C@@H](CCC(=O)O)C(=O)N[C@@H](CCCCN)C(=O)N[C@@H](C)C(=O)N[C@@H](C)C(=O)N[C@@H](CCCNC(=N)N)C(=O)N[C@H](C(=O)N[C@@H](CC(C)C)C(=O)N[C@@H](CCC(=O)O)C(=O)N[C@@H](CCCNC(=N)N)C(=O)N[C@H](C(N)=O)C(C)C)[C@@H](C)CC)C(=O)O [compound 30] (H-IVLSLD[dV]PTKLK([γGlu-Palmitoyl])KKLLKQERKRKEREQAEKAARILERV-NH2; N-terminus assumed)
